According to publication PMC11677527, “Predicting Pharmacokinetics of Active Constituents in Spatholobi caulis by Using Physiologically Based Pharmacokinetic Models” (Pharmaceuticals, 2024):
Like-named read-outs stand apart in the source and are kept apart here.

Legend:
[1] = Observed pharmacokinetics in rats after oral SPC (previous study); format: in vivo, rat; settings: p.o. SPC
[2] = Verification pharmacokinetic experiment in rats, SPC 60 g crude drug/kg by gavage, UFLC-MS/MS, DAS 2.0; format: in vivo, rat
Method in brief: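 Rats received SPC suspension at 60 g crude drug/kg by gavage. Orbital blood was taken at 0.083–12 h into heparin, and plasma 3′-methoxydaidzein, 8-O-methylretusin, daidzin and isolariciresinol were measured by UFLC-MS/MS (C18, MRM, carbamazepine internal standard). PK parameters were calculated from concentration-time curves.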

Caco-2 cell monolayer = test system: Caco-2 cell monolayer; set-up: method as in PMID 36680806, PMID 26501241; settings: Caco-2 cell monolayer model; cited from earlier work
[3] = set-up: method as in PMID 34303214; settings: rats, p.o. SPC 30 g crude drug/kg; doses of 1-4: 0.062, 0.11, 0.71, 1.31 mg/kg; cited from earlier work
[4] = compartment model parameters, DAS 2.0, rats p.o. SPC 60 g crude drug/kg, Mean, 5 rats
[5] = statistical moment parameters, DAS 2.0, rats p.o. SPC 60 g crude drug/kg, Mean, 5 rats
[6] = statistical moment parameters, DAS 2.0, rats p.o. SPC 60 g crude drug/kg, Mean, 5 rats, in µg·h²/mL

With `COc1cc([C@H]2c3cc(O)c(OC)cc3C[C@@H](CO)[C@@H]2CO)ccc1O` [Constituent 4, isolariciresinol] the “time of slight secondary absorption peak” value [1] was 6 h, the K10 [2, 4] was 7.512 h⁻¹ and the K12 [2, 4] was 0.448 h⁻¹. The K21 [2, 4] was 0.247 h⁻¹, the Ka [2, 4] was 5.032 h⁻¹ and the Tlag [2, 4] was 0 h. The V1/F [2, 4] was 29.573 L/kg, the t1/2Ka [2, 4] was 0.175 h and the t1/2α [2, 4] was 0.433 h. For the same compound, the concentration at 0.083 h ([2]; rat, plasma, oral, time 0.083 h, rats p.o. SPC 60 g crude drug/kg, doses of 1-4: 0.124, 0.22, 1.4, 2.62 mg/kg, 5 rats) was 15.4 ng/mL, the concentration at 0.25 h ([2]; rat, plasma, oral, time 0.25 h, rats p.o. SPC 60 g crude drug/kg, doses of 1-4: 0.124, 0.22, 1.4, 2.62 mg/kg, 5 rats) was 41.5 ng/mL and the concentration at 0.5 h ([2]; rat, plasma, oral, time 0.5 h, rats p.o. SPC 60 g crude drug/kg, doses of 1-4: 0.124, 0.22, 1.4, 2.62 mg/kg, 5 rats) was 41.7 ng/mL. It also gave a concentration at 0.75 h ([2]; rat, plasma, oral, time 0.75 h, rats p.o. SPC 60 g crude drug/kg, doses of 1-4: 0.124, 0.22, 1.4, 2.62 mg/kg, 5 rats) of 27.6 ng/mL, a concentration at 1 h ([2]; rat, plasma, oral, time 1 h, rats p.o. SPC 60 g crude drug/kg, doses of 1-4: 0.124, 0.22, 1.4, 2.62 mg/kg, 5 rats) of 22.2 ng/mL and a concentration at 1.5 h ([2]; rat, plasma, oral, time 1.5 h, rats p.o. SPC 60 g crude drug/kg, doses of 1-4: 0.124, 0.22, 1.4, 2.62 mg/kg, 5 rats) of 8.29 ng/mL. It also gave a concentration at 2 h ([2]; rat, plasma, oral, time 2 h, rats p.o. SPC 60 g crude drug/kg, doses of 1-4: 0.124, 0.22, 1.4, 2.62 mg/kg, 5 rats) of 7.03 ng/mL, a concentration at 3 h ([2]; rat, plasma, oral, time 3 h, rats p.o. SPC 60 g crude drug/kg, doses of 1-4: 0.124, 0.22, 1.4, 2.62 mg/kg, 5 rats) of 4.27 ng/mL and a concentration at 4 h ([2]; rat, plasma, oral, time 4 h, rats p.o. SPC 60 g crude drug/kg, doses of 1-4: 0.124, 0.22, 1.4, 2.62 mg/kg, 5 rats) of 3.41 ng/mL. It also gave a concentration at 6 h ([2]; rat, plasma, oral, time 6 h, rats p.o. SPC 60 g crude drug/kg, doses of 1-4: 0.124, 0.22, 1.4, 2.62 mg/kg, 5 rats) of 2.01 ng/mL, an AUC(0-t) ([2]; rat, plasma, po, 2.62 mg/kg, compartment model parameters, DAS 2.0, rats p.o. SPC 60 g crude drug/kg, Mean, 5 rats, read-out: AUC(0-t)) of 46.4 ng·h/mL and an AUC(0-inf) ([2]; rat, plasma, po, 2.62 mg/kg, compartment model parameters, DAS 2.0, rats p.o. SPC 60 g crude drug/kg, Mean, 5 rats, read-out: AUC(0-∞)) of 52.8 ng·h/mL. The CL/F ([2]; rat, plasma, po, 2.62 mg/kg, compartment model parameters, DAS 2.0, rats p.o. SPC 60 g crude drug/kg, Mean, 5 rats, read-out: CL/F (converted)) was 1660 mL/min/kg, the half-life ([2]; rat, plasma, po, 2.62 mg/kg, compartment model parameters, DAS 2.0, rats p.o. SPC 60 g crude drug/kg, Mean, 5 rats, read-out: t1/2β (converted)) was 17.4 h and the AUC(0-t) ([2]; rat, plasma, po, 2.62 mg/kg, rats, p.o. SPC 60 g crude drug/kg, doses of 1-4: 0.124, 0.22, 1.42, 2.62 mg/kg, n = 5, read-out: AUC0→t Val.) was 55.7 ng·h/mL. The AUC(0-inf) ([2]; rat, plasma, po, 2.62 mg/kg, rats, p.o. SPC 60 g crude drug/kg, doses of 1-4: 0.124, 0.22, 1.42, 2.62 mg/kg, n = 5, read-out: AUC0→∞ Val.) was 59.3 ng·h/mL, the Cmax ([2]; rat, plasma, po, 2.62 mg/kg, rats, p.o. SPC 60 g crude drug/kg, doses of 1-4: 0.124, 0.22, 1.42, 2.62 mg/kg, n = 5, read-out: Cmax Val.) was 41.7 ng/mL and the AUC(0-t) ([2]; rat, plasma, po, 2.62 mg/kg, statistical moment parameters, DAS 2.0, rats p.o. SPC 60 g crude drug/kg, Mean, 5 rats, read-out: AUC(0-t)) was 55.7 ng·h/mL. It also gave an AUC(0-inf) ([2]; rat, plasma, po, 2.62 mg/kg, statistical moment parameters, DAS 2.0, rats p.o. SPC 60 g crude drug/kg, Mean, 5 rats, read-out: AUC(0-∞)) of 59.3 ng·h/mL, a CL/F ([2]; rat, plasma, po, 2.62 mg/kg, statistical moment parameters, DAS 2.0, rats p.o. SPC 60 g crude drug/kg, Mean, 5 rats, read-out: CLz/F (converted)) of 738 mL/min/kg and a Cmax ([2]; rat, plasma, po, 2.62 mg/kg, statistical moment parameters, DAS 2.0, rats p.o. SPC 60 g crude drug/kg, Mean, 5 rats, read-out: Cmax) of 41.7 ng/mL. It also gave an MRT last ([2]; rat, plasma, po, 2.62 mg/kg, statistical moment parameters, DAS 2.0, rats p.o. SPC 60 g crude drug/kg, Mean, 5 rats, read-out: MRT(0-t)) of 1.48 h, an MRT inf ([2]; rat, plasma, po, 2.62 mg/kg, statistical moment parameters, DAS 2.0, rats p.o. SPC 60 g crude drug/kg, Mean, 5 rats, read-out: MRT(0-∞)) of 2.08 h and a Tmax ([2]; rat, plasma, po, 2.62 mg/kg, statistical moment parameters, DAS 2.0, rats p.o. SPC 60 g crude drug/kg, Mean, 5 rats, read-out: Tmax) of 0.3 h. It also gave a Vd/F ([2]; rat, plasma, po, 2.62 mg/kg, statistical moment parameters, DAS 2.0, rats p.o. SPC 60 g crude drug/kg, Mean, 5 rats, read-out: Vz/F) of 111 L/kg, a half-life ([2]; rat, plasma, po, 2.62 mg/kg, statistical moment parameters, DAS 2.0, rats p.o. SPC 60 g crude drug/kg, Mean, 5 rats, read-out: t1/2z (converted)) of 1.73 h and a Cz [2, 5] of 1.39 µg/L. The “VRT(0-t)” value [2, 5] was 2.067 h^2, the “VRT(0-∞)” value [2, 5] was 6.027 h^2 and the elimination rate constant [2, 5] was 0.412 h⁻¹. For the same compound, the “AUMC(0-t)” value [2, 6] was 82.484, the “AUMC(0-∞)” value [2, 6] was 123.911 and the Papp (Caco-2 cell monolayer) was 2.2 ×10⁻⁶ cm/s. For the same compound, the “AUC0→t Obs.” value [3] was 34.7 ng·h/mL, the “AUC0→∞ Obs.” value [3] was 38.3 ng·h/mL and the “Cmax Obs.” value [3] was 26.2 ng/mL. For the same compound, the “Tmax Obs.” value [3] was 0.31 h.
